According to ChEMBL document CHEMBL2417377, “Hit-to-lead optimization and kinase selectivity of imidazo[1,2-a]quinoxalin-4-amine derived JNK1 inhibitors” (Bioorg Med Chem Lett, 2013):

Columns and labels:
Details in all cases: PC-3
[1] = biological target: T1, MAP/microtubule affinity-regulating kinase 4 (Homo sapiens) (UniProt Q96L34); assay: Inhibition of MARK4 in human PC3 cell lysates at 10 uM using desthiobiotin-tagged ATP probe AX9989 followed by trypsinization by LC/MS analysis
T1 sequence (whole entry): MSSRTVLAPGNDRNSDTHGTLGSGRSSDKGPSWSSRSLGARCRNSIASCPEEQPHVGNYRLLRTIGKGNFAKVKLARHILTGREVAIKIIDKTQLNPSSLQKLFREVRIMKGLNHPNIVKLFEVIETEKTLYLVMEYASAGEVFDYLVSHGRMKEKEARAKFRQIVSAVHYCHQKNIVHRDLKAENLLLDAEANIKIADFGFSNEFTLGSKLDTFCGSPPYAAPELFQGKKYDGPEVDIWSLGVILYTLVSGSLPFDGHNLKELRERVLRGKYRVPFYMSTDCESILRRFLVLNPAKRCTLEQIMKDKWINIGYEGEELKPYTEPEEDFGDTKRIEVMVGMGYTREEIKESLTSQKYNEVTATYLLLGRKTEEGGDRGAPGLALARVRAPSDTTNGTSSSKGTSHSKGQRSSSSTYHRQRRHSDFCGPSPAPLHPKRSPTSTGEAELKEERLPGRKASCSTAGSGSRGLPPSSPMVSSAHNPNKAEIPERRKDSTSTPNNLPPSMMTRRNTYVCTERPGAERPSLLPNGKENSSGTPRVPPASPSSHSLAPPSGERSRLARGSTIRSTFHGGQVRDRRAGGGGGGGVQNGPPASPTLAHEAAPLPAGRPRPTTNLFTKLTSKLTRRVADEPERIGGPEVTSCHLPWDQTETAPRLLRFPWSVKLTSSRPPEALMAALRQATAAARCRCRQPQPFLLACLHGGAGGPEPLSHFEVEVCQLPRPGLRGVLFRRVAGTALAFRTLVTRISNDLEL

[2] = biological target: Serine/threonine-protein kinase MARK2 (Homo sapiens) (UniProt Q7KZI7); assay: Inhibition of MARK2 in human PC3 cell lysates at 10 uM using desthiobiotin-tagged ATP probe AX9989 followed by trypsinization by LC/MS analysis
Serine/threonine-protein kinase MARK2 (Homo sapiens), sequence (Q7KZI7 whole entry): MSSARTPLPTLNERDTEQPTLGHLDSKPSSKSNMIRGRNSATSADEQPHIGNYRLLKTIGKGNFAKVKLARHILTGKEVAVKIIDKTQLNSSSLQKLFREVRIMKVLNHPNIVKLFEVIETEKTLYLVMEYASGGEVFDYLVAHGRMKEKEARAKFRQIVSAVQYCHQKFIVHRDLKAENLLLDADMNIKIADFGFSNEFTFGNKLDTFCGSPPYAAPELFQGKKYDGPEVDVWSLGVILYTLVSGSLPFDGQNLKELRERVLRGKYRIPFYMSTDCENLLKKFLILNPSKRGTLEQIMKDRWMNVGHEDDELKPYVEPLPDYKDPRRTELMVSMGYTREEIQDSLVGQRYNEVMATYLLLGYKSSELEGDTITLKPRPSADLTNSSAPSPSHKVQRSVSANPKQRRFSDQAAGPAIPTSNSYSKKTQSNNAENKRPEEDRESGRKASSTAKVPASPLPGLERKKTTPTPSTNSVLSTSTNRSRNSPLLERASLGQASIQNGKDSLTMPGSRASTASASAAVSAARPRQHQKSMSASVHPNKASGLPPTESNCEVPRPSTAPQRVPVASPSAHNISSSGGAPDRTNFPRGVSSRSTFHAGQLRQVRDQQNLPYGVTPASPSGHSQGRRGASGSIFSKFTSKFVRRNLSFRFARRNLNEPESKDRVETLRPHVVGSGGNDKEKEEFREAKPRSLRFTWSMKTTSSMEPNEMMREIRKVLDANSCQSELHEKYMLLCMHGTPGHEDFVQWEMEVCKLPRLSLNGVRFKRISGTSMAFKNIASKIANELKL

[3] = biological target: Ribosomal protein S6 kinase beta-1 (Homo sapiens) (UniProt P23443); assay: Inhibition of p70S6K in human PC3 cell lysates at 10 uM using desthiobiotin-tagged ATP probe AX9989 followed by trypsinization by LC/MS analysis
Ribosomal protein S6 kinase beta-1 (Homo sapiens), sequence (P23443 whole entry, looked up): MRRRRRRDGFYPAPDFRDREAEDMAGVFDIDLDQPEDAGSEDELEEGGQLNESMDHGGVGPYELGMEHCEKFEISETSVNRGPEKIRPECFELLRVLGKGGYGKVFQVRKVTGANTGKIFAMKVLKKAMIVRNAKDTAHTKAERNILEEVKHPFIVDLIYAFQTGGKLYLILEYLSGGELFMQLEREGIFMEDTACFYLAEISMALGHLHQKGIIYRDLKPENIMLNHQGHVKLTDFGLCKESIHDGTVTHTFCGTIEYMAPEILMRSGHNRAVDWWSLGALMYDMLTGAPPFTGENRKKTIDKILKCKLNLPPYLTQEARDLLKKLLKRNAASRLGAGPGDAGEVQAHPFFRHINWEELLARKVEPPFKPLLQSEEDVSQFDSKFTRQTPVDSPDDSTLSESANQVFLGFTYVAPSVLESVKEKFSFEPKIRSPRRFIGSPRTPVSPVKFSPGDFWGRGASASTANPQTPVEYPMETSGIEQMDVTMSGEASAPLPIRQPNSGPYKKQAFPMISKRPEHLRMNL

[4] = biological target: T2, Serine/threonine-protein kinase Nek9 (Homo sapiens) (UniProt Q8TD19); assay: Inhibition of NEK9 in human PC3 cell lysates at 10 uM using desthiobiotin-tagged ATP probe AX9989 followed by trypsinization by LC/MS analysis
T2 sequence (whole entry): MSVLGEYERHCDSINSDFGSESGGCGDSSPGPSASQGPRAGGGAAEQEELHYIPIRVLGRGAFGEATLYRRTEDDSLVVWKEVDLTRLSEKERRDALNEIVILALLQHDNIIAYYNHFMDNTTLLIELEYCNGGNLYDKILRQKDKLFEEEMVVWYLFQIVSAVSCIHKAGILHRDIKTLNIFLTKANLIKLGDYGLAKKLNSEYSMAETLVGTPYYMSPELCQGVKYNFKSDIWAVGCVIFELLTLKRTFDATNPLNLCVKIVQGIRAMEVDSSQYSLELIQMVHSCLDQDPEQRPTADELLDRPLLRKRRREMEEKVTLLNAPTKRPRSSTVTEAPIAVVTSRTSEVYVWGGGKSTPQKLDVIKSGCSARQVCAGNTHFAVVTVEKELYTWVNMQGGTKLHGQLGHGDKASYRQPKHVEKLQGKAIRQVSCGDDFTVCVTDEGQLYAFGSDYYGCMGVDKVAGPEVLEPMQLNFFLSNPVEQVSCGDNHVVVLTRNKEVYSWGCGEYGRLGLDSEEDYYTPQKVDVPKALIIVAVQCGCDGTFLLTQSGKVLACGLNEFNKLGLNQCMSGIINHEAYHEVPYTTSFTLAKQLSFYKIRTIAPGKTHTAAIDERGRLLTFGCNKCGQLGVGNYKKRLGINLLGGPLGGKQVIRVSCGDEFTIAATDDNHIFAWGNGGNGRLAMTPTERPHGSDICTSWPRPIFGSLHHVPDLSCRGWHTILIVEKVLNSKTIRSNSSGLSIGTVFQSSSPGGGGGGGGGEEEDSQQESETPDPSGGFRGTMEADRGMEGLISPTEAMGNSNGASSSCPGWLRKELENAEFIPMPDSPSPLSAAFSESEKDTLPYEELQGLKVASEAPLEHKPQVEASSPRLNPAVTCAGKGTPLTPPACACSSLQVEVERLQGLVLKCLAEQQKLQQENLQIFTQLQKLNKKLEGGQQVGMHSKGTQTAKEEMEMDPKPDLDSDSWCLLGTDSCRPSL

[5] = biological target: Serine/threonine-protein kinase 16 (Homo sapiens) (UniProt O75716); assay: Inhibition of MPSK1 in human PC3 cell lysates at 10 uM using desthiobiotin-tagged ATP probe AX9989 followed by trypsinization by LC/MS analysis
Serine/threonine-protein kinase 16 (Homo sapiens), sequence (O75716 whole entry): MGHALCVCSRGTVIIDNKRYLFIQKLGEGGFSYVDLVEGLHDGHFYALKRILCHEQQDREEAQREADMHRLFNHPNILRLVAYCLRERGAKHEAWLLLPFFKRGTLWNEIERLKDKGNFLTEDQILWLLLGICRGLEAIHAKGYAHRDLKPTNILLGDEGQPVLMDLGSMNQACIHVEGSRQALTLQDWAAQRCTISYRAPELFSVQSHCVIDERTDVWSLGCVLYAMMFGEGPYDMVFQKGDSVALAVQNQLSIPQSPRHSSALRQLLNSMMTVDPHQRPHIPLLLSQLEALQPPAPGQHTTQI

[6] = biological target: Serine/threonine-protein kinase MRCK beta (Homo sapiens) (UniProt Q9Y5S2); assay: Inhibition of MRCKbeta in human PC3 cell lysates at 10 uM using desthiobiotin-tagged ATP probe AX9989 followed by trypsinization by LC/MS analysis
Serine/threonine-protein kinase MRCK beta (Homo sapiens), sequence (Q9Y5S2 whole entry): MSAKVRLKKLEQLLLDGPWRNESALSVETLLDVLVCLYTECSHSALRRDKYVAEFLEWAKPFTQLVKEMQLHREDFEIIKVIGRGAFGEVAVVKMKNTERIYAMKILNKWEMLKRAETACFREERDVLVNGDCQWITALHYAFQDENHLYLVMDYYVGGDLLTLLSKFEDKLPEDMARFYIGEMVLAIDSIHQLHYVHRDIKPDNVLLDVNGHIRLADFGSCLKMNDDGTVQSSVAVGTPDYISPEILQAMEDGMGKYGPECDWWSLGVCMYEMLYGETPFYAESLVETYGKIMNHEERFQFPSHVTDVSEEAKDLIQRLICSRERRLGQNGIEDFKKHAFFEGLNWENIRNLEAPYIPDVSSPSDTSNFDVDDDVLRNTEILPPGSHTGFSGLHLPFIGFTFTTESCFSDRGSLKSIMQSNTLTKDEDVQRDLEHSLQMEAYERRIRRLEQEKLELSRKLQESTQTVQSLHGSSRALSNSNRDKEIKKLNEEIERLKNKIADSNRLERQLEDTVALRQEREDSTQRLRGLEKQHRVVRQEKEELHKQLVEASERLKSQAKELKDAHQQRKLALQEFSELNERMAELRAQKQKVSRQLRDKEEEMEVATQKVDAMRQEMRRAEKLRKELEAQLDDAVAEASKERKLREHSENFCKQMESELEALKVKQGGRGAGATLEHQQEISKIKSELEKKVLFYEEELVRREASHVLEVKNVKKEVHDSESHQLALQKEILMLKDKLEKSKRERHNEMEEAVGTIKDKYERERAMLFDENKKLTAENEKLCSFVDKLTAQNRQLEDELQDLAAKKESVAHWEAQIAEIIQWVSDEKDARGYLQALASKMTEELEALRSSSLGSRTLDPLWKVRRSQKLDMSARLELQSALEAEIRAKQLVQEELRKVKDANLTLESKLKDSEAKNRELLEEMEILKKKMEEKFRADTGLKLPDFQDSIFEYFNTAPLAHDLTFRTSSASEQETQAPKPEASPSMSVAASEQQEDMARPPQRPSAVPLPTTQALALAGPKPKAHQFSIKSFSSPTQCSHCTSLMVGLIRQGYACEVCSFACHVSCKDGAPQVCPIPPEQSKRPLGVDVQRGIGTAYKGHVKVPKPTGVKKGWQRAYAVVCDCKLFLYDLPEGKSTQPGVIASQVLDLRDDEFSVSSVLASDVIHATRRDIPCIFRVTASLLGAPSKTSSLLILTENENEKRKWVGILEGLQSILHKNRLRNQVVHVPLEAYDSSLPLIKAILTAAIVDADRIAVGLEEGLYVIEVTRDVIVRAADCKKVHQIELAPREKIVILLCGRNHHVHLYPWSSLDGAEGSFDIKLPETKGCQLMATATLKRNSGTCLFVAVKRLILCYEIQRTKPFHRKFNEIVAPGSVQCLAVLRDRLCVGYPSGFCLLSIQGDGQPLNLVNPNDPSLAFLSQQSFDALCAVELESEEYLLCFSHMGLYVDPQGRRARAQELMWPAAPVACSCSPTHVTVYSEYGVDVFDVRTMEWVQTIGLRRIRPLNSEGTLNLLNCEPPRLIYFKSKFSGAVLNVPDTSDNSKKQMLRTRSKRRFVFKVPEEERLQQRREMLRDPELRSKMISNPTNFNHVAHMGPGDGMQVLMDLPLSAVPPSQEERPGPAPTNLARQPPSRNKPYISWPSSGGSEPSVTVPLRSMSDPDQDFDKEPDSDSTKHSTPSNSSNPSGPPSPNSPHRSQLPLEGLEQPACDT

[7] = biological target: Tyrosine-protein kinase Fyn (Homo sapiens) (UniProt P06241); assay: Inhibition of FYN in human PC3 cell lysates at 10 uM using desthiobiotin-tagged ATP probe AX9989 followed by trypsinization by LC/MS analysis
Tyrosine-protein kinase Fyn (Homo sapiens), sequence (P06241 2-537 limits assumed): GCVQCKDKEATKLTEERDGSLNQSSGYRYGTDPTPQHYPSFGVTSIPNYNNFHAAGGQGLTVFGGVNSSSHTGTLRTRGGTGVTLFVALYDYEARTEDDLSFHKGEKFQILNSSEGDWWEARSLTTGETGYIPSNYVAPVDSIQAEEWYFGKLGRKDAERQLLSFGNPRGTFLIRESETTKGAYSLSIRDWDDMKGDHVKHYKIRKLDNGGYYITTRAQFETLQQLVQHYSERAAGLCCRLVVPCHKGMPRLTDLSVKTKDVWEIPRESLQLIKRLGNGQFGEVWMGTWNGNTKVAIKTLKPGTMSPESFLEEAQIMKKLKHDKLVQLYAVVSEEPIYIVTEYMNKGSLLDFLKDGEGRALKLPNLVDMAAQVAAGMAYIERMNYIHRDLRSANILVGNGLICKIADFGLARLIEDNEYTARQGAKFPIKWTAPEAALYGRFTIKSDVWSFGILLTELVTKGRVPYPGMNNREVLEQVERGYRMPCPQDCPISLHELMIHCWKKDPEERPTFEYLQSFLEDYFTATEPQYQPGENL

[8] = biological target: SRSF protein kinase 2 (Homo sapiens) (UniProt P78362); assay: Inhibition of SRPK2 in human PC3 cell lysates at 10 uM using desthiobiotin-tagged ATP probe AX9989 followed by trypsinization by LC/MS analysis
[9] = biological target: Interferon-induced, double-stranded RNA-activated protein kinase (Homo sapiens) (UniProt P19525); assay: Inhibition of PKR in human PC3 cell lysates at 10 uM using desthiobiotin-tagged ATP probe AX9989 followed by trypsinization by LC/MS analysis
Interferon-induced, double-stranded RNA-activated protein kinase (Homo sapiens), sequence (P19525 whole entry): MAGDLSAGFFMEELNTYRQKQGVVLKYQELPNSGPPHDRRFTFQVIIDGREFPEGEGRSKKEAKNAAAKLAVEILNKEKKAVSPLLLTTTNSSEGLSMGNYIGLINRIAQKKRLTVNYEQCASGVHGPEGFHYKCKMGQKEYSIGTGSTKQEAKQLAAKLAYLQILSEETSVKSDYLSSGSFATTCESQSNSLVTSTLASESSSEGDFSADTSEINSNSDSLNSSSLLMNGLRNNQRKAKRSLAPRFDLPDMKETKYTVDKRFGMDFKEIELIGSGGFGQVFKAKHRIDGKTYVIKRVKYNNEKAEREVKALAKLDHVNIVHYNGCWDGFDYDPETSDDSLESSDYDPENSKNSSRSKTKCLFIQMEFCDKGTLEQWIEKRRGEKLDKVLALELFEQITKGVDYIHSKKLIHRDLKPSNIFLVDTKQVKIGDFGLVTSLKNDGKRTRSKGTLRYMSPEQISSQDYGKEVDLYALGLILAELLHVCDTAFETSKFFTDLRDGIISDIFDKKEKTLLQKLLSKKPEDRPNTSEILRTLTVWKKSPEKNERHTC

[10] = biological target: T3, Dual specificity mitogen-activated protein kinase kinase 4 (Homo sapiens) (UniProt P45985); assay: Inhibition of MAP2K4 in human PC3 cell lysates at 10 uM using desthiobiotin-tagged ATP probe AX9989 followed by trypsinization by LC/MS analysis
T3 sequence (whole entry): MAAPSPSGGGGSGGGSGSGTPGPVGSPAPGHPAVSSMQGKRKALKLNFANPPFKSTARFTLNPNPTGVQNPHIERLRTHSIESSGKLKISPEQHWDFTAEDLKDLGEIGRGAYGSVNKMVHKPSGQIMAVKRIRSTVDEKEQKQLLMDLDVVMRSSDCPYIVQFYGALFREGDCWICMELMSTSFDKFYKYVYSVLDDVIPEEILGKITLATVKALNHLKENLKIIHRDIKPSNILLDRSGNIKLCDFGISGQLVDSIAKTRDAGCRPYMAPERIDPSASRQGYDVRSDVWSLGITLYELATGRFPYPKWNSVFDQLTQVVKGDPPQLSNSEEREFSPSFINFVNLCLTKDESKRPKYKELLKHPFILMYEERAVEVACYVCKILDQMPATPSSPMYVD

Measured: inhibition

O=C(NC1(Cc2ccc(F)cc2)CC1)c1ccc2nc(N[C@H]3CC[C@H](O)CC3)c3nccn3c2c1
< 35%: all assays above
